# Assay results reported in patent US8168651B2, “Protein kinase modulators” (Cylene Pharmaceuticals, Inc., priority 2008, dated 2012).
# Legend:
# Test in all cases: Standardized radiometric kinase assays, percentage of activity at 0.5 μM;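 further: Read-out is ³³P-labelled substrate protein phosphorylated by each kinase, captured on filters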
# [1] = target: each individual kinase of the panel (Homo sapiens, UniProt P54756)
# [2] = target: each individual kinase of the panel (Homo sapiens, UniProt P00533)
# [3] = target: each individual kinase of the panel (Homo sapiens, UniProt P07332)
# [4] = target: each individual kinase of the panel (Homo sapiens, UniProt Q02763)
# [5] = target: each individual kinase of the panel (Homo sapiens, UniProt P04049)
# [6] = target: each individual kinase of the panel (Homo sapiens, UniProt O15111)
# [7] = target: each individual kinase of the panel (Homo sapiens, UniProt Q9NYY3)
# [8] = target: each individual kinase of the panel (Homo sapiens, UniProt Q00534)
# [9] = target: each individual kinase of the panel (Homo sapiens, UniProt P51812)
# [10] = target: each individual kinase of the panel (Homo sapiens, UniProt P04629)
# [11] = target: each individual kinase of the panel (Homo sapiens, UniProt P08069)
# each individual kinase of the panel (Homo sapiens, UniProt P08069), sequence (P08069 31-736 limits assumed): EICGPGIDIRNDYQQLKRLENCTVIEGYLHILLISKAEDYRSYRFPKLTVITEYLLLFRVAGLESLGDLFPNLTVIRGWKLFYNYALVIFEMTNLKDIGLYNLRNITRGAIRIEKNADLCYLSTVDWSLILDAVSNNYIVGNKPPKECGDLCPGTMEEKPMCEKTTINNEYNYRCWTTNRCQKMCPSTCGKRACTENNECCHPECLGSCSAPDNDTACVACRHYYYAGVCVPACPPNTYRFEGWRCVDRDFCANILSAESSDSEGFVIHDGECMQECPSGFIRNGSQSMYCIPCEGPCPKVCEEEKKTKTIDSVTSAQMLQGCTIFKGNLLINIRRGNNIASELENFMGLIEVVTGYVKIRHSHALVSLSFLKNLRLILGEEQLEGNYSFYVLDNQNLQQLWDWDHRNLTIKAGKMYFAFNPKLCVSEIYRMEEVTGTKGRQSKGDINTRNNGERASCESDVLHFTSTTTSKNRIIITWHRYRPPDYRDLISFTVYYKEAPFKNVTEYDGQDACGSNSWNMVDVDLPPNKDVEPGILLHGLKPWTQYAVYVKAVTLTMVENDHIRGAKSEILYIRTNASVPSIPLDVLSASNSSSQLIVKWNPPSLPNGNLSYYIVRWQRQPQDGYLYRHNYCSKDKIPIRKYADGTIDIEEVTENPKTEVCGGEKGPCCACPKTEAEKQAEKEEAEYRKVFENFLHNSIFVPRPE
# each individual kinase of the panel (Homo sapiens, UniProt P08069), sequence (P08069 741-1367 limits assumed): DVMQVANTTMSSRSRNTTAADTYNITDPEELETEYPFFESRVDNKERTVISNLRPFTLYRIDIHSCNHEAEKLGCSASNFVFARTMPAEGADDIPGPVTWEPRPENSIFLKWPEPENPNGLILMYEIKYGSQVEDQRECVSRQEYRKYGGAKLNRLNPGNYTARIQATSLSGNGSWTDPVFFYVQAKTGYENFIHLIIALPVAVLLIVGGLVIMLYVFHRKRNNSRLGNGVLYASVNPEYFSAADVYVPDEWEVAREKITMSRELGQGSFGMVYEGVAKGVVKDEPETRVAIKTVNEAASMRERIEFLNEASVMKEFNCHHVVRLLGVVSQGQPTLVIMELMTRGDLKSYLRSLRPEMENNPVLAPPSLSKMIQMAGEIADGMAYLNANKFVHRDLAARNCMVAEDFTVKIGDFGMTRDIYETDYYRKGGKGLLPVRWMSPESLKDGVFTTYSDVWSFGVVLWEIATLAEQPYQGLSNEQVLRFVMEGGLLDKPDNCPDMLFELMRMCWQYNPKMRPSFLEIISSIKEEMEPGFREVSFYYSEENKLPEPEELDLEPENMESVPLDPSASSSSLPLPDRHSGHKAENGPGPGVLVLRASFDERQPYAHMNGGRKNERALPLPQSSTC
# [12] = target: each individual kinase of the panel (Homo sapiens, UniProt P10721, D816H)
# each individual kinase of the panel (Homo sapiens, UniProt P10721, D816H), sequence (P10721 26-976 D816H limits assumed): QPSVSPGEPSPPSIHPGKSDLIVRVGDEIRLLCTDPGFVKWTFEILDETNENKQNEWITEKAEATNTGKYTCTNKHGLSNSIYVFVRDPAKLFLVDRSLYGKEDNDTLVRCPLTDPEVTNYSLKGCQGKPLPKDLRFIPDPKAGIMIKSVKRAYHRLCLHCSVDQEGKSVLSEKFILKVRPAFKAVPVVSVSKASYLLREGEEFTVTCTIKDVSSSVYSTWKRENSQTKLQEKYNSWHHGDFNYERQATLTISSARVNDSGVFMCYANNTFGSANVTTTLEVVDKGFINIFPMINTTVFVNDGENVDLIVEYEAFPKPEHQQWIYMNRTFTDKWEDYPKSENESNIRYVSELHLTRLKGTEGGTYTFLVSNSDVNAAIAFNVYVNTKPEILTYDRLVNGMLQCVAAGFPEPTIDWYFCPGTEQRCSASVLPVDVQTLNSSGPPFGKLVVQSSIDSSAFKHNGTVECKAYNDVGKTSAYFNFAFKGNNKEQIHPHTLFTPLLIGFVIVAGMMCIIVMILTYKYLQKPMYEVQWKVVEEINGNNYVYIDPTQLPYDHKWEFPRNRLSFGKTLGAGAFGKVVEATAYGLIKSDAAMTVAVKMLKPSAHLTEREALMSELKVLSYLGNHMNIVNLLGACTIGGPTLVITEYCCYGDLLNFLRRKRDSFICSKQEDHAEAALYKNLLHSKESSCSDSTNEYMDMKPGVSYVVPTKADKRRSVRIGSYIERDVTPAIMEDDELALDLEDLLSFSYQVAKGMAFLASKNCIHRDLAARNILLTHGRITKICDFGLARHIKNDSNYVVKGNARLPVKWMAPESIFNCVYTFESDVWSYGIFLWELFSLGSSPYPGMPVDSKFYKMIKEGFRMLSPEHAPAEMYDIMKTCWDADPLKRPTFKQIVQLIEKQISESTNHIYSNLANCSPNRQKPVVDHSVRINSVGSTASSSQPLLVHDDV
# [13] = target: each individual kinase of the panel (Homo sapiens, UniProt Q15375)
# [14] = target: each individual kinase of the panel (Homo sapiens, UniProt Q12866)
# [15] = target: each individual kinase of the panel (Homo sapiens, UniProt Q9BZL6)
# [16] = target: each individual kinase of the panel (Homo sapiens, UniProt P36888)
# [17] = target: each individual kinase of the panel (Homo sapiens, UniProt P09619)
# each individual kinase of the panel (Homo sapiens, UniProt P09619), sequence (P09619 33-1106 limits assumed): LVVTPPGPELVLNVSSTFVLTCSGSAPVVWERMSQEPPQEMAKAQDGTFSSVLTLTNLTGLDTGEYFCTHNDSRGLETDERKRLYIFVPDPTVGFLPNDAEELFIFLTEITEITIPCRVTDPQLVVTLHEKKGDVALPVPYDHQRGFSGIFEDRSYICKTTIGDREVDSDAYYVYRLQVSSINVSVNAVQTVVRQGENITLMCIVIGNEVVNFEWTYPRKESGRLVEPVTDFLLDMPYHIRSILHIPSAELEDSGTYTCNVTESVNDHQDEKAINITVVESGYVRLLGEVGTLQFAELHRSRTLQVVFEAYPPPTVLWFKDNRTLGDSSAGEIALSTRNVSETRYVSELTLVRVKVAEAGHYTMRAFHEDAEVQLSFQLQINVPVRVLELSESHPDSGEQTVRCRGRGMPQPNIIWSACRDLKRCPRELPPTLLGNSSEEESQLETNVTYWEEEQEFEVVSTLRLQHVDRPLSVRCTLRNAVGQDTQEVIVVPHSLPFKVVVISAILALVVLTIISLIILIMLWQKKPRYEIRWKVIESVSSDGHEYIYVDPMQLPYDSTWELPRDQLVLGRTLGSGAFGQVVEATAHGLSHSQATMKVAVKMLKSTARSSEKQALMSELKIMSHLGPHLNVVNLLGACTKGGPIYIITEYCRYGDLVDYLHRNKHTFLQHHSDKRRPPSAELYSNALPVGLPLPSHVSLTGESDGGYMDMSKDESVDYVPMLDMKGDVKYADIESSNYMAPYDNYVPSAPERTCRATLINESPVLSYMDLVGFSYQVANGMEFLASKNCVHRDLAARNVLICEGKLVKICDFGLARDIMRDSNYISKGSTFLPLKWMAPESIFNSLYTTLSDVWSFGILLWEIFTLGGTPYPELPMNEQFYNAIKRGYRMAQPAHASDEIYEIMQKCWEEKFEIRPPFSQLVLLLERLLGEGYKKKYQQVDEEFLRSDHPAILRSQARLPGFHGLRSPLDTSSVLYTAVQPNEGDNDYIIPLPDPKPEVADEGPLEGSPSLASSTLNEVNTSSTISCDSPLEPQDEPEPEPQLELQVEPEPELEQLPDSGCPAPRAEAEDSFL
# [18] = target: each individual kinase of the panel (Homo sapiens, UniProt P23443)
# [19] = target: each individual kinase of the panel (Homo sapiens, UniProt P06213)
# each individual kinase of the panel (Homo sapiens, UniProt P06213), sequence (P06213 28-758 limits assumed): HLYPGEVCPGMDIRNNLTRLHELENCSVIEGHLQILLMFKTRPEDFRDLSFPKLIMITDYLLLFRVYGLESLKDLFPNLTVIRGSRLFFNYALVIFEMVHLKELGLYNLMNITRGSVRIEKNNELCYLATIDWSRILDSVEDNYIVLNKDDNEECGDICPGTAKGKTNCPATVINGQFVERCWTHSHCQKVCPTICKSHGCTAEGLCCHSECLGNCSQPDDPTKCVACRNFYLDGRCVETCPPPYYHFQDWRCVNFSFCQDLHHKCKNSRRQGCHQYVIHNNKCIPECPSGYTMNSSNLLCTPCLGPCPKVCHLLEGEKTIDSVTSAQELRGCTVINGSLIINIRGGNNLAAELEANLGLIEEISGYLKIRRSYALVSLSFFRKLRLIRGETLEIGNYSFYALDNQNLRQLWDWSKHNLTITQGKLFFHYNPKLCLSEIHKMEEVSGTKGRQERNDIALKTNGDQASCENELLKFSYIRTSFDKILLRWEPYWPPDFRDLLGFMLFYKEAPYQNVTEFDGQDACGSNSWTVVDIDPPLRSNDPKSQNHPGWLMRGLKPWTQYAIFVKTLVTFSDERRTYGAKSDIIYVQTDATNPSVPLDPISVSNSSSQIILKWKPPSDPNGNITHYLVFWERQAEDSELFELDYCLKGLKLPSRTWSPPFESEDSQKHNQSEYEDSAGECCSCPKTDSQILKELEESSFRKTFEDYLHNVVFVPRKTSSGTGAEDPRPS
# each individual kinase of the panel (Homo sapiens, UniProt P06213), sequence (P06213 763-1382 limits assumed): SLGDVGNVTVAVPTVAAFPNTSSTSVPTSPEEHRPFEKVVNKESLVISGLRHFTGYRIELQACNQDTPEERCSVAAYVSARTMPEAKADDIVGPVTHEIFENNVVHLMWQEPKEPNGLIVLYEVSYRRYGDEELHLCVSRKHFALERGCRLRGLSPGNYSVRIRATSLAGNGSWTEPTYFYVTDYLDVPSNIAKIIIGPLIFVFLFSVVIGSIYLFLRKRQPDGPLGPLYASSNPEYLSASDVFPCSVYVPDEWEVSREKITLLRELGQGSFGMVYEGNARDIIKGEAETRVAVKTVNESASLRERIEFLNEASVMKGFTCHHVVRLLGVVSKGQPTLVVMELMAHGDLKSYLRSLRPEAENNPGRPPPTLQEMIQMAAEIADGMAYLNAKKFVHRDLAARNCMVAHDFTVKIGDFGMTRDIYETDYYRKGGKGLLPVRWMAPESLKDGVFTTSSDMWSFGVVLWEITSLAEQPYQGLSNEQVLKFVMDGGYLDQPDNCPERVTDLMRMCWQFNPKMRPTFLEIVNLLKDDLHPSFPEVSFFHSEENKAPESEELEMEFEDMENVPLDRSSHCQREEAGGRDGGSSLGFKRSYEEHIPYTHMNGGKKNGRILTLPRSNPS
# [20] = target: each individual kinase of the panel (Homo sapiens, UniProt P00519)
# [21] = target: each individual kinase of the panel (Homo sapiens, UniProt O60674)
# [22] = target: each individual kinase of the panel (Homo sapiens, UniProt O75676)
# [23] = target: each individual kinase of the panel (Homo sapiens, UniProt P06493)
# [24] = target: each individual kinase of the panel (Homo sapiens, UniProt P06239)
# [25] = target: each individual kinase of the panel (Homo sapiens, UniProt P00533, L861Q)
# [26] = target: each individual kinase of the panel (Homo sapiens, UniProt O94804)
# [27] = target: each individual kinase of the panel (Homo sapiens, UniProt P07948)
# [28] = target: each individual kinase of the panel (Homo sapiens, UniProt P00533, L858R/T790M)
smiles,measurement,setting,value
C#Cc1cccc(Nc2nc3cc(C(=O)O)ccc3c3cncnc23)c1 [drawing 1135],EPHA5 percentage of activity,[1],−25%
same,EGFR percentage of activity,[2],−23%
same,FES percentage of activity,[3],−39%
same,TIE2 percentage of activity,[4],1%
same,RAF1 percentage of activity,[5],31%
same,IKK alpha percentage of activity,[6],−1%
same,PLK2 percentage of activity,[7],−17%
same,CDK6/cyclinD3 percentage of activity,[8],−8%
same,RPS6KA3 percentage of activity,[9],34%
same,TRKA percentage of activity,[10],10%
same,IGF1R percentage of activity,[11],27%
same,cKit(D816H) percentage of activity,[12],−1%
same,EPHA7 percentage of activity,[13],1%
same,MER percentage of activity,[14],54%
same,PRKd_nM2 percentage of activity,[15],−7%
same,FLT3 percentage of activity,[16],58%
same,PDGFRB percentage of activity,[17],−10%
same,p70S6K percentage of activity,[18],20%
same,INSR percentage of activity,[19],−5%
same,ABL1 percentage of activity,[20],9%
same,JAK2 percentage of activity,[21],1%
same,MSK2 percentage of activity,[22],44%
same,CDK1/cyclinB percentage of activity,[23],48%
C#Cc1cccc(Nc2nc3cc(C(=O)O)ccc3c3cnccc23)c1 [drawing 1137],EPHA5 percentage of activity,[1],12%
same,EGFR percentage of activity,[2],24%
same,FES percentage of activity,[3],1%
same,TIE2 percentage of activity,[4],−12%
same,RAF1 percentage of activity,[5],62%
same,IKK alpha percentage of activity,[6],3%
same,PLK2 percentage of activity,[7],30%
same,LCK percentage of activity,[24],33%
same,CDK6/cyclinD3 percentage of activity,[8],12%
same,RPS6KA3 percentage of activity,[9],53%
same,TRKA percentage of activity,[10],56%
same,IGF1R percentage of activity,[11],−9%
same,cKit(D816H) percentage of activity,[12],87%
same,EGFR(L861Q) percentage of activity,[25],59%
same,EPHA7 percentage of activity,[13],5%
same,MER percentage of activity,[14],86%
same,LOK percentage of activity,[26],72%
same,PRKd_nM2 percentage of activity,[15],0%
same,FLT3 percentage of activity,[16],90%
same,PDGFRB percentage of activity,[17],−2%
same,p70S6K percentage of activity,[18],36%
same,INSR percentage of activity,[19],−7%
same,ABL1 percentage of activity,[20],20%
same,JAK2 percentage of activity,[21],38%
same,MSK2 percentage of activity,[22],41%
same,LYN percentage of activity,[27],20%
same,"EGFR(T790M, L858R) percentage of activity",[28],26%
same,CDK1/cyclinB percentage of activity,[23],84%
